According to patent US5480892A, “(N-phthalimidoalkyl)piperidines” (The Du Pont Merck Pharmaceutical Company, priority 1994, dated 1996):
Read-outs that look alike come from different tables or passages of the source.

What was measured:
Sigma receptor = target: T1, Sigma receptor (Cavia porcellus, UniProt Q60492); experiment: Sigma Receptor Binding Assay; format: guinea pig (male Hartley), brain membranes
T1 construct: Brain membranes were prepared by the method of Tam; from tissue; host or cells: guinea pig whole brain membranes
T1 sequence (Q60492 whole entry): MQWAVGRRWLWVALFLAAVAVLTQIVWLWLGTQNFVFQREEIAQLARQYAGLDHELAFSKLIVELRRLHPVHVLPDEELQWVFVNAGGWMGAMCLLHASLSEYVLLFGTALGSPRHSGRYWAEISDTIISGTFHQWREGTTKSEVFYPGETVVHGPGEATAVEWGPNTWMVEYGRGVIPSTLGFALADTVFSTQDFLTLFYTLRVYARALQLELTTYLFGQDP
Protocol: Male Hartley guinea pigs (250-300 g, Charles River) were sacrificed by decapitation. […] Whole brains were homogenized (20 sec.) in 10 vol (wt/vol) of ice-cold 0.34 M sucrose with a Brinkmann Polytron (setting 8). The homogenate was centrifuged at 920×g for 10 min. The supernatant was centrifuged at 47,000×g for 20 min. The resulting membrane pellet was resuspended in 10 vol (original wt/vol) of 50 mM Tris HCl (pH 7.4) and incubated at 37° C. for 45 min to degrade and dissociate bound endogenous ligands. The membranes were then centrifuged at 47,000×g for 20 min and resuspended in 50 mM Tris HCl (50 mL per brain).
After 45 rain of incubation at room temperature, samples were filtered rapidly through Whatman GF/C glass filters under negative pressure, and washed 3 times with ice-cold Tris buffer (5 mL).
IC50 s were calculated from log-logit plots. Apparent Ki s were calculated from the equation, Ki =IC50 /[1+(L/Kd)], where L is the concentration of radioligand and Kd is its dissociation constant.

Dopamine (D-2) receptor = target: T2, Dopamine (D-2) receptor (Cavia porcellus, UniProt H0VE83); experiment: Dopamine Receptor Binding; format: guinea pig, striatum membranes
T2 construct: Membranes were prepared from guinea pig striatum; from tissue; host or cells: guinea pig striatum membranes
T2 sequence (H0VE83 1-446): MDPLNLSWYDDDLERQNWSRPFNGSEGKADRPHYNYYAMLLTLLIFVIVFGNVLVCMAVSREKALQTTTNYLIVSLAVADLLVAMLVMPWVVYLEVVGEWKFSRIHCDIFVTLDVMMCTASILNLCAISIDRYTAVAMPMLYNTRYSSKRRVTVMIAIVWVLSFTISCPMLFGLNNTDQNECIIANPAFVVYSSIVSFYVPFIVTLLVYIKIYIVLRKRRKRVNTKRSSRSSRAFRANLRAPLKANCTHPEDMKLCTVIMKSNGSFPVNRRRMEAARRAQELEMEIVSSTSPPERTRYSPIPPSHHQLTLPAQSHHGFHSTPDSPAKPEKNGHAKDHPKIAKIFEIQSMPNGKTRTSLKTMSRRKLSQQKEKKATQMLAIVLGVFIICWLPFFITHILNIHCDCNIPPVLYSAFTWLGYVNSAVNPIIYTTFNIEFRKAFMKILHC
Protocol: Membranes were prepared from guinea pig striatum by the method described for sigma receptor binding. The membranes were then resuspended in 50 mM Tris HCl (9 mL per brain).
Nonspecific binding was measured in the presence of 100 nM (+)-butaclamol After 15 min of incubation at 37° C. samples were filtered rapidly through Whatman GF/C glass filters under negative pressure, and washed three times with ice-cold binding buffer (5 mL).

[1] = 0.15 nM [3H]spiperone, guinea pig striatum, pH 7.7, 15 min 37° C., read-out: Receptor Binding Affinity Dopamine (D-2) (Ki class)
[2] = 1 nM (+)-[3H]SKF 10,047, guinea pig brain membranes, pH 7.4, 45 min room temperature, read-out: Receptor Binding Affinity Sigma (Ki class)

Structure (SMILES)	Ki (Sigma receptor)	Ki (Dopamine (D-2) receptor; [1])	Ki (Sigma receptor; [2])	Ki (Dopamine (D-2) receptor)
O=C1[C@H]2CCCC[C@H]2C(=O)N1CC1(c2ccc(Cl)cc2)CCN(CCc2ccccc2)CC1 [Example 124]	1 to 30 nM	> 500 nM	–	–
CC1(CN2C(=O)[C@H]3CCCC[C@H]3C2=O)CCN(CCC2CCCCC2)CC1 [Example 133]	–	> 500 nM	1 to 30 nM	–
O=C1c2ccccc2C(=O)N1CCC1CCN(Cc2cccc(F)c2)CC1 [Example 40]	–	> 500 nM	1 to 30 nM	–
O=C1c2ccccc2C(=O)N1CCC1=CCN(CCc2ccccc2)CC1 [Example 115]	–	> 500 nM	1 to 30 nM	–
O=C1[C@H]2CCCC[C@H]2C(=O)N1CC1CCN(CCc2ccc([N+](=O)[O-])cc2)CC1 [Example 27]	–	> 500 nM	1 to 30 nM	–
O=C1[C@H]2CCCC[C@H]2C(=O)N1CC1CCN(Cc2cccc(C(F)(F)F)c2)CC1 [Example 18]	–	> 500 nM	31 to 100 nM	–
O=C1[C@H]2CCCC[C@H]2C(=O)N1CC1(c2ccccc2)CCN(CCc2ccccc2)CC1 [Example 122, 2-[1-(2-Phenylethyl)-4-phenyl-4-piperidine-methyl]-cis-3a; 4,5,6,7,7a-hexalydro-1H-isoindole-1,3(2H)-dione]	1 to 30 nM	> 500 nM	–	–
CC12CC=CCC1C(=O)N(CC1CCN(CCc3ccccc3)CC1)C2=O (stereo not shown) [Example 67]	–	> 500 nM	101 to 500 nM	–
O=C1c2ccccc2C(=O)N1CCC1CCCCN1Cc1ccccc1 (stereo not shown) [Example 50]	–	> 500 nM	31 to 100 nM	–
O=C1[C@H]2CCCC[C@H]2C(=O)N1CC1CCN(CCc2ccc(F)cc2)CC1 [Example 29]	–	> 500 nM	31 to 100 nM	–
O=C1[C@H]2CC=CC[C@H]2C(=O)N1CCCC1=CCN(CCc2ccccc2)CC1 [Example 118]	–	> 500 nM	1 to 30 nM	–
O=C1[C@H]2CCCC[C@H]2C(=O)N1CC1CCN(CCc2c[nH]c3ccccc23)CC1 [Example 32]	–	–	101 to 500 nM	> 500 nM
O=C1[C@H]2CCCC[C@H]2C(=O)N1CC1CCN(CCc2ccc(Br)cc2)CC1 [Example 30]	–	101 to 500 nM	1 to 30 nM	–
O=C1C2C3CCCC(CC3)C2C(=O)N1CC1CCN(CCc2ccccc2)CC1 (stereo not shown) [Example 61]	–	> 500 nM	1 to 30 nM	–
O=C1c2ccccc2C(=O)N1CCCC1CCN(Cc2ccccc2)CC1 [Example 43]	–	> 500 nM	1 to 30 nM	–
O=C1c2ccccc2C(=O)N1CC1CCN(Cc2cccc(F)c2)CC1 [Example 35]	–	> 500 nM	31 to 100 nM	–
O=C1C2CCCCC2C(O)N1CC1CCN(CCc2ccccc2)CC1 (stereo not drawn) [Example 5, cis-Octahydro-3-hydroxy-2-[[1-(2-phenylethyl)-4-piperidinyl]methyl]-1H-isoindol-1-one]	–	> 500 nM	101 to 500 nM	–
O=C1[C@H]2CC=CC[C@H]2C(=O)N1CC1=CCN(CCc2ccccc2)CC1 [Example 117]	–	> 500 nM	1 to 30 nM	–
O=C1c2ccccc2C(=O)N1CC1CCN(CCc2ccccc2)CC1 [Example 2, 2-[1-(2-Phenylethyl)-4-piperidinylmethyl]-1H-isoindole-1,3(2H)-dione]	–	> 500 nM	31 to 100 nM	–
O=C1C2CC(O)C(O)CC2C(=O)N1CC1CCN(CCc2ccccc2)CC1 (stereo not shown) [Example 63]	–	> 500 nM	> 500 nM	–
O=C1[C@H]2CCCC[C@H]2C(=O)N1CCCC1CCN(CCc2ccccc2)CC1 [Example 33]	–	> 500 nM	1 to 30 nM	–
O=C1C2C3CCC(C4CCC43)C2C(=O)N1CC1CCN(CCc2ccccc2)CC1 (stereo not shown) [Example 72]	–	101 to 500 nM	1 to 30 nM	–
O=C1C2C3CCC(O3)C2C(=O)N1CC1CCN(CCc2ccccc2)CC1 (stereo not shown) [Example 58]	–	> 500 nM	1 to 30 nM	–
O=C1[C@H]2CCCC[C@H]2C(=O)N1CCC1=CCN(CCc2ccccc2)CC1 [Example 120]	–	> 500 nM	1 to 30 nM	–
O=C1[C@H]2CCCC[C@H]2C(=O)N1CC1(c2cccc3ccccc23)CCN(CCc2ccccc2)CC1 [Example 127]	31 to 100 nM	> 500 nM	–	–
O=C1[C@H]2CCCC[C@H]2C(=O)N1CC1CCN(CCc2ccc(Cl)cc2)CC1 [Example 26]	–	> 500 nM	1 to 30 nM	–
O=C1[C@H]2CC=CC[C@H]2C(=O)N1CC1CCN(CCc2ccccc2)CC1 [Example 1, 2-[1-(2-Phenylethyl)-4-piperidinylmethyl]-cis-3a; 4,7,7a-tetrahydro-1H-isoindole-1,3(2H)-dione]	–	> 500 nM	31 to 100 nM	–
O=C1c2ccccc2C(=O)N1CC1CCCN(CCc2ccccc2)C1 (stereo not shown) [Example 48]	–	> 500 nM	1 to 30 nM	–

Structure (SMILES)	Ki (Sigma receptor)	Ki (Dopamine (D-2) receptor; [1])	Ki (Sigma receptor; [2])	Ki (Dopamine (D-2) receptor)
COc1cccc(C2(CN3C(=O)C4CCCCC4C3=O)CCN(CCc3ccccc3)CC2)c1 (stereo not shown) [Example 125]	31 to 100 nM	–	–	> 500 nM
O=C1C2C3C=CC(C4CC34)C2C(=O)N1CC1CCN(CCc2ccccc2)CC1 (stereo not shown) [Example 69]	–	> 500 nM	1 to 30 nM	–
O=C1[C@@H]2CCCC[C@H]2C(=O)N1CC1CCN(CCc2ccccc2)CC1 (relative stereo) [Example 22]	–	> 500 nM	31 to 100 nM	–
O=C1C2C3C=CC(C4CCC34)C2C(=O)N1CC1CCN(CCc2ccccc2)CC1 (stereo not shown) [Example 59]	–	> 500 nM	31 to 100 nM	–
O=C1[C@H]2CCCC[C@H]2C(=O)N1C1CCN(CCc2ccccc2)CC1 [Example 13]	–	> 500 nM	31 to 100 nM	–
O=C1C2CC=CCC2C(=O)N1CC1CCN(CCc2ccccc2)CC1 (stereo not shown) [Example 52]	–	> 500 nM	1 to 30 nM	–
O=C1c2cccc3cccc(c23)C(=O)N1CCC1CCN(CCc2ccccc2)CC1 [Example 9]	–	101 to 500 nM	1 to 30 nM	–
O=C1C2C3C=CC(C4CCC34)C2C(=O)N1CC1CCN(CCc2ccccc2)CC1 (stereo not shown) [Example 113]	–	–	31 to 100 nM	–
O=C1[C@H]2CCCC[C@H]2C(=O)N1CC1CCN(Cc2ccc(F)cc2)CC1 [Example 20]	–	> 500 nM	1 to 30 nM	–
CC12CC=CCC1(C)C(=O)N(CC1CCN(CCc3ccccc3)CC1)C2=O (stereo not shown) [Example 66]	–	> 500 nM	31 to 100 nM	–
O=C1C2=C(CN1CC1CCN(CCc3ccccc3)CC1)C1CCCC2CC1 (stereo not shown) [Example 71]	–	> 500 nM	1 to 30 nM	–
O=C1C2C3CCC(C3)C2CN1CC1CCN(CCc2ccccc2)CC1 (stereo not shown) [Example 54]	–	> 500 nM	31 to 100 nM	–
O=C1c2ccccc2C(=O)N1CCCC1CCCN(CCc2ccccc2)C1 (stereo not shown) [Example 49]	–	> 500 nM	1 to 30 nM	–
O=C1[C@H]2CCCC[C@H]2C(=O)N1CC1(c2cccc(Cl)c2)CCN(CCc2ccccc2)CC1 [Example 123]	1 to 30 nM	> 500 nM	–	–
O=C1[C@H]2CCCC[C@H]2C(=O)N1CC1CCN(Cc2ccccc2)CC1 [Example 14]	–	> 500 nM	1 to 30 nM	–
O=C1c2ccccc2C(=O)N1CCC1CCN(Cc2ccccc2)CC1 [Example 38]	–	> 500 nM	1 to 30 nM	–
O=C1[C@H]2CCCC[C@H]2C(=O)N1CC1CCN(CC2CC2)CC1 [Example 21]	–	> 500 nM	101 to 500 nM	–
O=C1[C@H]2CCCC[C@H]2C(=O)N1CC1CCN(CCCc2ccccc2)CC1 [Example 16]	–	> 500 nM	31 to 100 nM	–
O=C1C2CCCCC2C(=O)N1CC1(c2cccc(C(F)(F)F)c2)CCN(CCc2ccccc2)CC1 (stereo not shown) [Example 126]	1 to 30 nM	> 500 nM	–	–
O=C1C2C3C=CC(C4C=CC43)C2C(=O)N1CC1(O)CCN(CCc2ccccc2)CC1 (stereo not shown) [Example 76]	–	> 500 nM	31 to 100 nM	–
O=C1c2ccccc2C(=O)N1CCC1CCN(Cc2ccc(F)cc2)CC1 [Example 41]	–	> 500 nM	1 to 30 nM	–
O=C1c2ccccc2C(O)N1CC1CCN(CCc2ccccc2)CC1 (stereo not shown) [Example 7, 2,3-Dihydro-3-hydroxy-2-[[1-(2-phenylethyl]-4-piperidinyl]methyl]-1H-isoindol-1-one]	–	> 500 nM	101 to 500 nM	–
O=C1[C@H]2CCCC[C@H]2C(=O)N1CCC1CCN(CCc2ccccc2)CC1 [Example 24]	–	> 500 nM	1 to 30 nM	–
O=C1[C@H]2CCCC[C@H]2C(=O)N1CCCC1=CCN(CCc2ccccc2)CC1 [Example 121]	–	> 500 nM	1 to 30 nM	–
O=C1C2C3C=CC(C4CCC34)C2C(=O)N1CC1CCN(CCc2c[nH]c3ccccc23)CC1 (stereo not shown) [Example 10]	–	31 to 100 nM	1 to 30 nM	–
O=C1c2ccccc2C(=O)N1CC1CCN(Cc2ccc(F)cc2)CC1 [Example 36]	–	> 500 nM	1 to 30 nM	–
CCCC1C2c3ccccc3C=CC2C(=O)N1CCC1CCN(CCc2ccccc2)CC1 (stereo not shown) [Example 86]	–	101 to 500 nM	101 to 500 nM	–
